Results on six compounds are retold here after patent US20250127913A1, “BIFUNCTIONAL FOLATE RECEPTOR BINDING COMPOUNDS” (LYCIA THERAPEUTICS, INC., priority 2021, published 2025).

The subject of assay [1] is THP-1 cells. Briefly: Compound mediated uptake of TNFα-pHrodo in THP-1 cells (flow cytometry). In kind it is cell-based. The arrangement: key to Uptake in THP1 cells (run) 2 / Uptake in THP1 cells (run) 3 / Uptake in THP1 cells (run) 4: + = ΔMFI less than that of I-17; ++ = ΔMFI ≈ to that of I-17; +++ = ΔMFI greater than that of I-17. The settings on record: ΔMFI compared with I-17, uptake at 10 μM. As to the method: THP-1 cells, a monocytic leukemia cell line that endogenously express folate receptor beta, were used as a model system to measure example compound stimulated uptake of in-house produced TNFα conjugated to the pH sensitive fluorescent dye pHrodo green (ThermoFisher Scientific #P35369).
THP-1 cells were maintained in RPMI (Gibco #61870143) with 10% v/v FBS (VWR #89510-188) with 2 mM L-alanyl-L-glutamine dipeptide, 100 units/ml penicillin and 100 μg/ml streptomycin (Gibco #15140148). Cells were pelleted, resuspended in folate-free RPMI (Gibco #27016021) and seeded at 50,000 cells per well of a 96 well plate. Example compound was added to each well as a log 2 dilution series ranging from 20 μM to 125 nM final concentration. Cells were incubated for 24 hrs and washed/resuspended in phosphate buffered saline (pH 7.4) with 1% w/v BSA. Uptake was measured using a Novocyte Advanteon Flow Cytometer (Agilent Technologies) with the […] and FITC detection configuration.
For orientation: A flow cytometer gives signals particle by particle.

Assay [2] addresses TNFα trimer (Homo sapiens, UniProt P01375). Briefly: SPR binding kinetics of compounds to TNFα trimer. The settings on record: for Kd: class symbols; for koff: read-out: kd. The method, then: Streptavidin 100 μg/mL Streptavidin (Invitrogen Cat #: 434302) diluted in 10 mM sodium acetate, pH 4.5) was immobilized to both the reference and active surfaces as described in Example 51. The surfaces were conditioned with three injections of running Buffer (10 mM HEPES, 150 mMNaCl, 0.05% T20, pH 7.5, 2% DMSO) at a flow rate of 10 μL/min, Contact time: 60 s. Flow rate: 10 μL/min. The active surface was treated with biotinylated linked TNFα trimer 20 μg/mL diluted in running buffer at a flow rate of 5 μL/min contact time: 600 s, yielding a final response of ˜3000 RU. Example compounds were then serially diluted 1:1 in running buffer (10 mM HEPES, 150 mM NaCl, 0.05% T20, pH 7.5, 2% DMSO) from 30 uM to 937.5 nM and flowed over the active and reference surfaces from lowest concentration to greatest concentration in the single-cycle kinetics format, and then allowed to dissociate in running buffer for 7200 s, at 30 μL/min. Sensorgrams were solvent corrected, double-referenced, and the data fitted and analyzed in Biacore Insight Evaluation Software Version 3.0.11.15423.
On the technique in general: SPR reads the build-up and loss of mass on a sensor chip optically.

Assay [3] addresses FOLR2 (Homo sapiens (Human), UniProt P14207). Put plainly: SPR binding kinetics of compounds to folate receptor (FOLR2 immobilized on CM5 chip). The method, then: A Biacore 8K+ was used to measure the association and dissociation rates of example compounds to FOLR2 (Acro Biosystems, Cat: F02-H5223-100 μg). Briefly, FOLR2 was reconstituted according to the manufacture's instructions to 200 μg/mL. Both the active and reference surfaces of a Cytiva CM5 Series S Sensor Chip were activated with a 1:1 mixture of 400 mM EDC and 100 mM NHS for 420 s at 10 μL/min. 25 μg/mL FOLR2 diluted in Sodium Acetate pH 5.5 was injected on the active channel (Flow Cell 2) for 420 s at 10p/min. Both the reference and active surfaces were then capped with 1M ethanolamine, pH 8.5 for 420 s, achieving an immobilization level of ˜4200 RU. Example compounds were serially diluted 1:1 in running buffer (10 mM HEPES, 150 mM NaCl, 0.05% T20, pH 7.5, 2% DMSO) from 100 nM to 3.125 nM and flowed over the active and reference surfaces for 120 s, and then allowed to dissociate in running buffer for 600 s, at 30 uL/min. The FOLR2 immobilized active surface and the reference surface were regenerated with a 30 s pulse of Sodium Acetate pH 5.5 at 30 μL/min. Sensorgrams were solvent corrected, double-referenced, and the data fitted and analyzed in Biacore Insight Evaluation Software Version 3.0.11.15423.

The structures appear in SMILES notation. Like-named read-outs stand apart in the source and are kept apart here.

Chain of TNFα trimer (P01375 77-233 limits assumed): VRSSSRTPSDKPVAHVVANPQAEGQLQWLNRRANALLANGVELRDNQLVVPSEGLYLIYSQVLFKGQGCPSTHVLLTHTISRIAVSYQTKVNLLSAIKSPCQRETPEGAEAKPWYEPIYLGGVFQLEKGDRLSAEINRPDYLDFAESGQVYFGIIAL
Chain of FOLR2 (P14207 17-255): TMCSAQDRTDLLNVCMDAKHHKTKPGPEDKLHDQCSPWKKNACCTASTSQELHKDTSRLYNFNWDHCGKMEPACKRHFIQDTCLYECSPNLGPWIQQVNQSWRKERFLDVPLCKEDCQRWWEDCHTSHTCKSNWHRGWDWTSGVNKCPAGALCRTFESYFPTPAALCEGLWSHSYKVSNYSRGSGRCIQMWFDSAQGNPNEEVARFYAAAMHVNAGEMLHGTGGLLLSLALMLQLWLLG

`Cc1nc2cc(F)c(-c3cnc(OCCCCCNC(=O)CC[C@H](NC(=O)c4ccc(NCc5cnc6nc(N)nc(O)c6n5)cc4)C(=O)O)nc3)nc2c(N[C@H](C)c2cc(C#N)ccc2F)c1Cl` [Compound I-13, N2-(4-(((2-amino-4-hydroxypteridin-6-yl)methyl)amino)benzoyl)-N5-(5-((5-(7-chloro-8-(((R)-1-(5-cyano-2-fluorophenyl)ethyl)amino)-3-fluoro-6-methyl-1,5-naphthyridin-2-yl)pyrimidin-2-yl)oxy)pentyl)-L-glutamine]: in assay [1], the “Uptake in THP1 cells (run) 2” value is recorded as “+”, the “Uptake in THP1 cells (run) 3” value is recorded as “++” and the “Uptake in THP1 cells (run) 4” value is on record as “++”. The Kd (commonly a measure of binding affinity in units of concentration) in assay [2] was less than 100 nM.

For `Nc1nc(O)c2nc(CNc3ccc(C(=O)N[C@@H](CCC(=O)NCCOCCOCCOCCOCc4cn(CCCCCOc5ccc(-c6ccc7nc(COc8cccc(N9CCCC9=O)c8)n(Cc8ccccc8OC(F)F)c7c6)cn5)nn4)C(=O)O)cc3)cnc2n1` [Compound I-25, (S)-18-(4-(((2-amino-4-hydroxypteridin-6-yl)methyl)amino)benzamido)-1-(1-(5-((5-(1-(2-(difluoromethoxy)benzyl)-2-((3-(2-oxopyrrolidin-1-yl)phenoxy)methyl)-1H-benzo[d]imidazol-6-yl)pyridin-2-yl)oxy)pentyl)-1H-1,2,3-triazol-4-yl)-15-oxo-2,5,8,11-tetraoxa-14-azanonadecan-19-oic acid], in assay [1], the “Uptake in THP1 cells (run) 2” value is “+”, the “Uptake in THP1 cells (run) 3” value is on record as “+++” and the “Uptake in THP1 cells (run) 4” value was “++”. In assay [2] (SPR single cycle kinetics, TNFalpha trimer immobilized), the koff came out at 3.65e-06 s⁻¹. In assay [2], this compound came in with a dissociation constant (Kd) of less than 100 nM. Moreover, in assay [3], the equilibrium dissociation constant (Kd) is 0.5 nM.

`Cc1nc2ccc(-c3cnc(OCCOCCn4cc(COCCOCCOCCOCCNC(=O)CC[C@H](NC(=O)c5ccc(NCc6cnc7nc(N)nc(O)c7n6)cc5)C(=O)O)nn4)nc3)cc2n1Cc1ccccc1OC(F)F` [Compound I-24, (S)-18-(4-(((2-amino-4-hydroxypteridin-6-yl)methyl)amino)benzamido)-1-(1-(2-(2-((5-(1-(2-(difluoromethoxy)benzyl)-2-methyl-1H-benzo[d]imidazol-6-yl)pyrimidin-2-yl)oxy)ethoxy)ethyl)-1H-1,2,3-triazol-4-yl)-15-oxo-2,5,8,11-tetraoxa-14-azanonadecan-19-oic acid]: in assay [1], the “Uptake in THP1 cells (run) 3” value is “+” and the “Uptake in THP1 cells (run) 4” value is on record as “+”. In assay [2], this compound had an equilibrium dissociation constant (Kd) of less than 5000 nM. Besides, binding in assay [3] was characterised by a dissociation constant (Kd) of 0.4 nM.

Take `Cc1nc2cc(F)c(-c3cnc(OCCCCCn4cc(COCCOCCNC(=O)CC[C@H](NC(=O)c5ccc(NCc6cnc7nc(N)nc(O)c7n6)cc5)C(=O)O)nn4)nc3)nc2c(N[C@H](C)c2cc(C#N)ccc2F)c1Cl` [Compound I-16, N2-(4-(((2-amino-4-hydroxypteridin-6-yl)methyl)amino)benzoyl)-N5-(2-(2-((1-(5-((5-(7-chloro-8-((I-1-(5-cyano-2-fluorophenyl)ethyl)amino)-3-fluoro-6-methyl-1,5-naphthyridin-2-yl)pyrimidin-2-yl)oxy)pentyl)-1H-1,2,3-triazol-4-yl)methoxy)ethoxy)ethyl)-L-glutamine]: in assay [1], the “Uptake in THP1 cells (run) 2” value was “+++”, the “Uptake in THP1 cells (run) 3” value is recorded as “+++” and the “Uptake in THP1 cells (run) 4” value is “++”. Moreover, in assay [2], the Kd was less than 100 nM and the koff came out at 5.81e-05 s⁻¹. The affinity in assay [3], expressed as Kd, was 0.3 nM.

As to `Cc1nc2ccc(-c3cnn(CCCCCCn4cc(COCCOCCOCCOCCNC(=O)CC[C@H](NC(=O)c5ccc(NCc6cnc7nc(N)nc(O)c7n6)cc5)C(=O)O)nn4)c3)cn2c1Cc1cc(Cl)ccc1Cl` [Compound I-26, (S)-18-(4-(((2-amino-4-hydroxypteridin-6-yl)methyl)amino)benzamido)-1-(1-(6-(4-(3-(2,5-dichlorobenzyl)-2-methylimidazo[1,2-a]pyridin-6-yl)-1H-pyrazol-1-yl)hexyl)-1H-1,2,3-triazol-4-yl)-15-oxo-2,5,8,11-tetraoxa-14-azanonadecan-19-oic acid], in assay [1], the “Uptake in THP1 cells (run) 2” value was “+++”, the “Uptake in THP1 cells (run) 3” value was “+” and the “Uptake in THP1 cells (run) 4” value is reported as “+”. The compound also had a Kd in assay [2] of less than 5000 nM. This compound also showed a Kd in assay [3] of 0.2 nM.

As to `Cc1nc2cc(F)c(-c3cnc(OCCCCCn4cc(COCCOCCOCCOCCNC(=O)CC[C@H](NC(=O)c5ccc(NCc6cnc7nc(N)nc(O)c7n6)cc5)C(=O)O)nn4)nc3)nc2c(N[C@H](C)c2cc(C#N)ccc2F)c1Cl` [Compound I-17, (S)-18-(4-(((2-amino-4-hydroxypteridin-6-yl)methyl)amino)benzamido)-1-(1-(5-((5-(7-chloro-8-((I-1-(5-cyano-2-fluorophenyl)ethyl)amino)-3-fluoro-6-methyl-1,5-naphthyridin-2-yl)pyrimidin-2-yl)oxy)pentyl)-1H-1,2,3-triazol-4-yl)-15-oxo-2,5,8,11-tetraoxa-14-azanonadecan-19-oic acid], in assay [1], the “Uptake in THP1 cells (run) 2” value is “++”, the “Uptake in THP1 cells (run) 3” value is “++” and the “Uptake in THP1 cells (run) 4” value was “+++”. In assay [2], this compound returned a dissociation constant (Kd) of less than 1000 nM.
